{"source": "patent US20260337211A1", "about": "“IP5 SUBSTITUTED COMPOUNDS” (SANIFIT THERAPEUTICS, S.A., priority 2022, published 2026)", "note": "Structures can show the parent of a compound that is named as a salt.", "data": [{"assay": "In vitro inhibition of calcium phosphate crystallization in human plasma (spectrophotometric, 550 nm)", "assay_type": "biochemical", "conditions": "0-100 μM compound, 1.5 mM phosphate and 12.5 mM calcium, pH 7.4, 30 min at rt, slope between 6 and 24 min, 30 min, read-out: Relative Potency (EC50)", "protocol": "(§1) The in vitro efficacy of the IP5 substituted compounds (e.g., Compounds 1 to 32) of the invention on the inhibition of calcium phosphate crystallization in human plasma samples was evaluated according to a spectrophotometric assay previously described in the art (Ferrer M, et al., Sci Rep 2017; 7:6858, doi:10.1038/s41598-017-07203-x).\n(§2) A 96-well plate was employed. Plasma was spiked (1 volume of the IP5 substituted compounds of the invention per 19 volumes of plasma) with increasing concentrations of the derivatives in the range of 0-100 μM. Plasma was then centrifuged at 10,000 g at rt and subsequently mixed with a mixture of 5 mM hydrogen phosphate and 41.67 mM calcium to attain final concentrations of 1.5 mM phosphate and 12.5 mM calcium, respectively. All reagent solutions were filtered, and pH adjusted to 7.4.\n(§3) Crystallization of calcium phosphate was monitored spectrophotometrically for 30 min at rt by measuring the increments in absorbance at 550 nm using the Biotek Powerwave XS Microplate spectrophotometer (BioTek Instruments, Inc., Winooski, VT, US). The plate was incubated at rt in an orbital shaker and absorbance measured every 3 min.\n(§4) Plasma crystallization was assessed based on slope measurement in the linear range between 6 and 24 min from plots of increase in absorbance versus logarithm of time. The efficacy of different myo-inositol phosphates derivatives in preventing in vitro formation of calcium phosphate crystals was assessed in human plasma samples using the slopes obtained between 6- and 24-min. Inhibition of crystallization was measured by comparing the slopes of the control sample (blank plasma) with those of samples containing the inhibitor as shown below: […]", "units": {"EC50": "µM"}, "values": [{"compound": "O=P(O)(O)OC1C(OCCCCCC(F)(F)F)C(OP(=O)(O)O)C(OP(=O)(O)O)C(OP(=O)(O)O)C1OP(=O)(O)O", "note": "(stereo not drawn) [Compound 36, 2-O-(6,6,6-Trifluorohexyl)-myo-inositol-1,3,4,5,6-pentakis(phosphate) decasodium salt]", "EC50": "≤ 5"}]}, {"assay": "In vitro inhibition of calcium phosphate crystallization in human plasma (spectrophotometric, 550 nm)", "assay_type": "biochemical", "conditions": "0-100 μM compound, 1.5 mM phosphate and 12.5 mM calcium, pH 7.4, 30 min at rt, slope between 6 and 24 min, read-out: Relative Potency (EC50)", "protocol": "as §1, §2, §3, §4", "units": {"EC50": "µM"}, "values": [{"compound": "rac-4-O-(5-Hydroxypentyl)-myo-inositol-1,2,3,5,6-pentakis(phosphate) decasodium salt [Compound 2]", "EC50": "≤ 5"}, {"compound": "rac-4-O-Methyl-myo-inositol-1,2,3,5,6-pentakis(phosphate) decasodium salt [Compound 22]", "EC50": "5 to 10"}, {"compound": "rac-4-O-(10-Hydroxydecyl)-myo-inositol-1,2,3,5,6-pentakis(phosphate) decasodium salt [Compound 21]", "EC50": "> 10"}, {"compound": "5-O-Propyl-myo-inositol-1,2,3,4,6-pentakis(phosphate) decasodium salt [Compound 29]", "EC50": "5 to 10"}, {"compound": "5-O-(9-Methoxypentyl)-myo-inositol-1,2,3,4,6-pentakis(phosphate) decasodium salt [Compound 44]", "EC50": "5 to 10"}, {"compound": "2-O-(19-methoxynonadecyl)-myo-inositol-1,3,4,5,6-pentakis(phosphate) decasodium salt [Compound 9]", "EC50": "> 10"}, {"compound": "rac-1-O-(2-Cyclopropylethyl)-myo-inositol-2,3,4,5,6-pentakis(phosphate) decasodium salt [Compound 48]", "EC50": "≤ 5"}, {"compound": "rac-4-O-(2-(4-Acetylpiperazin-1-yl)ethyl)-myo-inositol-1,2,3,5,6-pentakis(phosphate) decasodium salt [Compound 5]", "EC50": "≤ 5"}, {"compound": "rac-4-O-(10-Carboxyldecyl)-myo-inositol-1,2,3,5,6-pentakis(phosphate) undecasodium salt [Compound 20]", "EC50": "> 10"}, {"compound": "NC(=O)CCCCCOC1C(OP(=O)(O)O)C(OP(=O)(O)O)C(OP(=O)(O)O)C(OP(=O)(O)O)C1OP(=O)(O)O", "note": "(racemic) [Compound 33, rac-4-O-(6-Amino-6-oxohexyl)-myo-inositol-1,2,3,5,6-pentakis(phosphate) decasodium salt]", "EC50": "≤ 5"}, {"compound": "O=P(O)(O)OC1C(OCCCCCn2cccn2)C(OP(=O)(O)O)C(OP(=O)(O)O)C(OP(=O)(O)O)C1OP(=O)(O)O", "note": "(racemic) [Compound 18, rac-4-O-(5-(1H-Pyrazol-1-yl)pentyl)-myo-inositol-1,2,3,5,6-pentakis(phosphate) decasodium salt]", "EC50": "5 to 10"}, {"compound": "Cc1ccc(CCCOC2C(OP(=O)(O)O)C(OP(=O)(O)O)C(OP(=O)(O)O)C(OP(=O)(O)O)C2OP(=O)(O)O)cc1", "note": "(racemic) [Compound 11, rac-4-O-(3-(p-Tolyl)propyl)-myo-inositol-1,2,3,5,6-pentakis(phosphate) decasodium salt]", "EC50": "5 to 10"}, {"compound": "NCCCOC1C(OP(=O)(O)O)C(OP(=O)(O)O)C(OP(=O)(O)O)C(OP(=O)(O)O)C1OP(=O)(O)O", "note": "(racemic) [Compound 27, rac-4-O-(3-Aminopropyl)-myo-inositol-1,2,3,5,6-pentakis(phosphate) decasodium salt]", "EC50": "≤ 5"}, {"compound": "5-O-(6,6,6-Trifluorohexyl)-myo-inositol-1,2,3,4,6-pentakis(phosphate) decasodium salt [Compound 45]", "EC50": "5 to 10"}, {"compound": "rac-1-O-(5-(4-(Methoxymethyl)-1H-1,2,3-triazol-1-yl)pentyl)-myo-inositol-2,3,4,5,6-pentakis(phosphate) decasodium salt [Compound 52]", "EC50": "5 to 10"}, {"compound": "2-O-(5-Methoxypentyl)-myo-inositol-1,3,4,5,6-pentakis(phosphate) decasodium salt [Compound 7]", "EC50": "5 to 10"}, {"compound": "2-O-(5-Acetamidopentyl)-myo-inositol-1,3,4,5,6-pentakis(phosphate) decasodium salt [Compound 35]", "EC50": "> 10"}, {"compound": "COCc1cn(CCCCCOC2C(OP(=O)(O)O)C(OP(=O)(O)O)C(OP(=O)(O)O)C(OP(=O)(O)O)C2OP(=O)(O)O)nn1", "note": "(stereo not drawn) [Compound 46, 5-O-(5-(4-(Methoxymethyl)-1H-1,2,3-triazol-1-yl)pentyl)-myo-inositol-1,2,3,4,6-pentakis(phosphate) decasodium salt]", "EC50": "> 10"}, {"compound": "O=P(O)(O)OC1C(OCCCc2cccc(C(F)(F)F)c2)C(OP(=O)(O)O)C(OP(=O)(O)O)C(OP(=O)(O)O)C1OP(=O)(O)O", "note": "(racemic) [Compound 15, rac-4-O-(3-(3-(Trifluoromethyl)phenyl)propyl)-myo-inositol-1,2,3,5,6-pentakis(phosphate) decasodium salt]", "EC50": "5 to 10"}, {"compound": "O=P(O)(O)OC1C(OCCC2CCCC2)C(OP(=O)(O)O)C(OP(=O)(O)O)C(OP(=O)(O)O)C1OP(=O)(O)O", "note": "(racemic) [Compound 51, rac-1-O-(2-Cyclopentylethyl)-myo-inositol-2,3,4,5,6-pentakis(phosphate) decasodium salt]", "EC50": "≤ 5"}]}]}
